The text below walks through data of US20070077583A1, “Alpha enolase-directed diagnostics and therapeutics for cancer and chemotherapeutic drug resistance” (Aurelium BioPharma, Inc., priority 2005, published 2007).

The subject of one data set is α-enolase. Briefly: Western blot of α-enolase protein expression after siRNA transfection. Type of data set: cell-based, human. As to conditions: for reduction of α-enolase expression: A549 cells; for decrease of levels of expression of α-enolase: MDA-MB-435 cells. As for the experimental part: Western blot analysis utilizing anti-α-enolase antibodies was performed on MOLT4 cell extracts fractionated on SDS-PAGE (FIG. 3). Cells extract were prepared according to the protocol detailed in Example 1. […] Resolved proteins were electrophoretically transferred onto nitrocellulose membranes (Hybond, Amercham Pharmacia Biotech) for 1 hour. […] After blocking the membranes with 5% non-fat milk in 1×PBS overnight at 4° C., all antibody-binding reactions were performed in 5% non-fat milk in 1×PBS for 2 hours at room temperature for primary antibodies and for 1 hour for secondary antibodies coupled to HRP. The signal was detected by the Supersignal west Pico chemiluminescent substrate (Pierce, Rockford, Ill., USA). Two polyclonal antibodies against α-enolase were used: a goat antibody against human α-enolase (Santa Cruz Biotechology, Inc., Santa Cruz, Calif.); rabbit polyclonal antibody against human α-enolase (NNE) (MorphoSys AG, Munich, Del.). Membranes were subsequently blotted with anti-GAPDH (Novus Biologicals, Inc., Littleton, Colo.) or anti-prohibitin mouse monoclonal antibody (Lab Vision Corp., Fremont, Calif.) as controls for protein loading. To establish the importance of α-enolase to the expression of the drug-resistant phenotype in cell lines, α-enolase expression was silenced using RNAi. Briefly, the following siRNA duplexes targeting the human α-enolase mRNA were designed and purchased either from Ambion (Austin, Tex.) or Invitrogen (Carlsbad, Calif.). […] [NT] ID NO: 2) targeting the mRNA sequence corresponding to nucleotides […] from the start of the transcript (Ref Seq ID number: NM-001428). […] In another tube, […] of Oligofectamine reagent (Invitrogen, Carlsbad, Calif.) is mixed with […] of Opti-MEM. The two solutions are combined and mixed gently by inversion and incubated for 20 min. at RT. […] The next day the transfected cells were trypsinized and seeded in 6 or 96-well plates and further incubated for the indicated amount of time (assay dependent) before further analysis.

The test system of the next data set is SW-480 cells. Nature of the data set: cells. The class given is cell-based, human. The procedure:
The colorectal adenocarcinoma cell line SW-480 was treated with α-enolase-directed siRNA using the procedures described above.

The subject of data set [1] is Detroit skin, Hfl fetal lung, and MRC-5 fetal lung fibroblast cell lines. Nature of the data set: MTT survival of normal fibroblast cells after α-enolase silencing. As to conditions: relative to mock or control siRNA. Type of data set: cell-based. The procedure:
Detroit skin, Hfl fetal lung, and MRC-5 fetal lung fibroblast cell lines were treated with α-enolase-targeted siRNA as described in Example 5.

A further data set deals with A549 cells. Briefly: Transwell filter cell invasion assay, A549. The class given is cell-based, human. As for the experimental part:
Transwell filter chamber assays were performed using a Chemicon QCM 96-well invasion kit according to the manufacturer's instructions (Chemicon International, Inc., Temecula, Calif.). Eno-1 and control siRNA transfected cells were harvested 2 days post-transfection, resuspended in media without serum and seeded in 96-well Matrigel-coated transwell filter plates at 50,000 cells per well. Medium with 10% serum was used as a chemo-attractant in a feeder tray. The inserts were placed into the feeder tray, and the cells were subsequently incubated for 16 hours at 37° C. in an incubator containing a 5% CO2 atmosphere. Cells that invaded through the filter to the bottom tray were quantitated using the CyQUANT-GR dye according to the manufacturer's instructions (Molecular Probes, Eugene, Oreg.).
These assays test the ability of a cell to move across membranes, which is a hallmark of metastatic potential. To confirm the results shown in FIGS. 27A and 27B, the highly metastatic cell line MDA-MB-435 was transfected with a vector expressing the α-enolase siRNA and subjected to the transwell filter assay (FIGS. 28 and 29, respectively).

For another data set, the system named is MCF-7 cells. Nature of the data set: Clonogenic assay, MCF-7 cells. The class given is cell-based, human. As to conditions: adriamycin-resistant MCF-7 cells, without drug. As for the experimental part: Utilizing a clonogenic assay generated additional information concerning cell viability after drug-resistant cells were exposed to siRNA and chemotherapeutics. […] Taxol or Vincristine was added at IC10 or IC50 concentrations determined from MTT experiments for MCF-7 cells. […] The cells were further incubated for an additional 7 days. At the end of the incubation, the cells were stained with addition of a 0.5% Methylene Blue solution in 50% ethanol for 15 min. at RT. The staining solution was then removed and plates were dried overnight. The plates were scanned and the stained colonies were solubilized in 0.1% SDS. The absorbance of the resulting solution was determined by spectrophotometry at 660 nm.

A further data set relates to MDA-435 cells. Briefly: cells. Type of data set: cell-based, human. The procedure:
Similar tests utilizing α-enolase siRNA were performed on MDA-435 breast adenocarcinoma cells. Chemosensitivity to various drugs was determined for the MDA-435 cells as described above.

Turning to “α-enolase siRNA: siRNA duplex targeting human α-enolase mRNA; sense 5′-GGCUGUUGAGCACAUCAAUtt-3′ (SEQ ID NO: 1), antisense SEQ ID NO: 2; Ambion (antisense AUUGAUGUGCUCAACAGCC; bought from Ambion, sense has tt overhang, further chemistry not given here)”, the “reduction of α-enolase expression” value with α-enolase (six days post-transfection) amounted to 90%; with α-enolase (three days post-transfection) it was 77%. Besides, the “α-enolase expression” value in the data set with α-enolase (Detroit fibroblast cells, three days of treatment) was “significant down-regulation”. The “α-enolase level relative to control transfected cells” value in the data set on α-enolase (MDA-435 cells, 6 days post-transfection) came out at 14%. The “decrease of levels of expression of α-enolase” value was 92% in the data set with α-enolase (six days) and 67% in the data set on α-enolase (three days). Moreover, the “decrease of α-enolase protein expression” value in the data set on α-enolase (variety of cell lines) was 50-80%. Besides, the “decrease in cell viability” value with SW-480 cells is on record as 50%. The “survival of normal fibroblast cells” value in data set [1] is “no effect on survival”. For the same substance, the “invasion across membranes” value with A549 cells is on record as “reduced the invasion”. In the data set with MCF-7 cells, the “viability less than that of siRNA untreated cells” value was 65%. Also, the “cell viability, of the control level” value in the data set with MDA-435 cells is reported as “about 17%”.
